Structures are written as SMILES. Counter-ions that a name gives are not always drawn. Where only a bound is given, the exact number is not on record here.

The subject of the first test is H358 cells. Briefly: Inhibition of H358 cell proliferation (CellTiter-Glo 3D, 7 days). The format is cell-based. The conditions noted are these: Homo sapiens, 168 h, NCI-H358, 7 days, read-out: IC50 (nM), inhibitory activity on H358 cell proliferation. Here is the method: • (a) The cells were thawed in T75 cell culture flasks:
• (b) When 80-90% cell confluence was achieved, the cells were passaged.
The diluted test compounds were added to a 384-well cell culture plate using a nanoliter pipetting system, and duplicate wells were set. An equal volume of medium was added to the positive control group; an equal volume of DMSO was added to the negative control group. The plate was centrifuged at 1000 rpm at room temperature for 1 min.
The cells were inoculated into a) 384-well culture plate, an equal volume of cells was added to the negative control group, and only an equal volume of medium was added to the positive control group. The plate was centrifuged at 1000 rpm at room temperature for 1 min. The final concentration of DMSO in the final compounds was 0.5%. The plate was incubated in a thermostatic incubator at 37° C. with 5% CO2 for 7 days.
CellTiter-Glo® 3D was added to b) 384-well cell culture plate at 20 μL/well. The plate was shaken at 320 rpm in the dark for 20 min, and incubated at room temperature in the dark for 2 h. The luminescence values were read using an Envision multi-mode microplate reader.
The inhibition rates of the compounds at different concentrations were calculated in Excel, and then inhibition curves were plotted and relevant parameters including minimum inhibition rate, maximum inhibition rate and IC50 were calculated using GraphPad Prism software.
(Cellular ATP, detected with luciferase, serves as a proxy for viable cell number.)
`COCCOc1cc2c(N[C@H](C)c3cccc(C(F)(F)C(C)(C)O)c3C)nc(C)nc2cc1OC` [Example 90, (R)-1,1-Difluoro-1-(3-(1-((7-methoxy-6-(2-methoxyethoxy)-2-methylquinazolin-4-yl)amino)ethyl)-2-methylphenyl)-2-methylpropan-2-ol]: the IC50 turned out to be 48.6 nM.
The same measure, in the same setting: next, `COCCOc1cc2c(N[C@H](C)c3cc(C#N)cc(C(F)(F)C(C)(C)O)c3)nc(C)nc2cc1OC` [Example 91, (R)-3-(1,1-Difluoro-2-hydroxy-2-methylpropane)-5-(1-((7-methoxy-6-(2-methoxyethoxy)-2-methylquinazolin-4-yl)amino)ethyl)benzonitrile]: over 10000 nM; `COc1cc2nc(C)nc(N[C@H](C)c3cccc(C(F)(F)C(C)(C)O)c3F)c2cc1OCCOC1COC1` [Example 92, (R)-1,1-Difluoro-1-(2-fluoro-3-(1-((7-methoxy-2-methyl-6-(2-(oxetan-3-yloxy)ethoxy)quinazolin-4-yl)amino)ethyl)phenyl)-2-methylpropan-2-ol]: 18.2 nM; `COc1cc2nc(C)nc(N[C@H](C)c3cccc(C(F)(F)C(C)(C)O)c3F)c2cc1OCCOC1CC1` [Example 93, (R)-1-(3-(1-((6-(2-Cyclopropyloxyethoxy)-7-methoxy-2-methylquinazolin-4-yl)amino)ethyl)-2-fluorophenyl)-1,1-difluoro-2-methylpropan-2-ol]: 40.9 nM.
As for `[2H]C([2H])([2H])Oc1cc2nc(C)nc(N[C@H](C)c3cccc(C(F)(F)C(C)(C)O)c3F)c2cc1OCCOC` [Example 97, (R)-1,1-Difluoro-1-(2-fluoro-3-(1-((7-deuteratedmethoxy-6-(2-methoxyethoxy)-2-methylquinazolin-4-yl)amino)ethyl)phenyl)-2-methylpro pan-2-ol], the IC50 came out at 15.5 nM.
Still for that read-out and setting: with `CCOc1cc2nc(C)nc(N[C@H](C)c3cccc(C(F)(F)C(C)(C)O)c3F)c2cc1OCCOC` [Example 98, (R)-1-(3-(1-((7-Ethoxy-6-(2-methoxyethoxy)-2-methylquinazolin-4-yl)amino)ethyl)-2-fluor ophenyl)-1,1-difluoro-2-methylpropan-2-ol] the figure was 12.8 nM; with `COCCOc1cc2c(N[C@H](C)c3cccc(C(F)(F)C(C)(C)O)c3F)nc(C)nc2cc1OC(C)C` [Example 99, (R)-1,1-Difluoro-1-(2-fluoro-3-(1-((7-isopropoxy-6-(2-methoxyethoxy)-2-methylquinazolin-4-yl)amino)ethyl)phenyl)-2-methylpropan-2-ol], 20 nM.
Same read-out and setting: next, `COCCOc1cc2c(N[C@H](C)c3cccc(C(F)(F)C(C)(C)O)c3F)nc(C)nc2cc1-c1cccnc1` [Example 101, (R)-1,1-Difluoro-1-(2-fluoro-3-(1-((6-(2-methoxyethoxy)-2-methyl-7-(pyridin-3-yl)quinazolin-4-yl)amino)ethyl)phenyl)-2-methylpropyl-2-ol]: 15.5 nM.
Same read-out and setting: next, `COCCOc1cc2c(N[C@H](C)c3cccc(C(F)(F)C(C)(C)O)c3F)nc(C)nc2cc1-c1cnn(C)c1` [Example 102, (R)-1,1-Difluoro-1-(2-fluoro-3-(1-((6-(2-methoxyethoxy)-2-methyl-7-(1-methyl-1H-pyrazol-4-yl)quinazolin-4-yl)amino)ethyl)phenyl)-2-methylpropyl-2-ol]: 13.3 nM; `COCCOc1cc2c(N[C@H](C)c3cccc(C(F)(F)C(C)(C)O)c3F)nc(C)nc2cc1OC1COC1` [Example 103]: 23.5 nM.
Regarding `COCCOc1cc2nc(C)nc(N[C@H](C)c3cc(N)cc(C(F)(F)C(C)(C)O)c3)c2cc1OCCOC` [Example 113, (R)-1-(3-Amino-5-(1-((6,7-bis(2-methoxyethoxy)-2-methylquinazolin-4-yl)amino)ethyl)phenyl)-1,1-difluoro-2-methylpropan-2-ol], the IC50 stood at 10.4 nM.
The same measure, in the same setting: with `COc1cc2nc(C)nc(N[C@H](C)c3cc(N)cc(C(F)(F)C(C)(C)O)c3)c2cc1OCCOc1cccnc1` [Example 115, (R)-1-(3-Amino-5-(1-(7-methoxy-2-methyl-6-(2-(pyridine-3-oxy)ethoxy)quinazolin-4-yl)amino)ethyl)phenyl-1,1-difluoro-2-methylpropan-2-ol] the figure was 9.92 nM.

Another test deals with T1, binding of KRAS^G12C to SOS1 (Homo sapiens, UniProt Q07889).
T1 construct: Tag1 (unspecified)
T1 sequence (Q07889 1-1333): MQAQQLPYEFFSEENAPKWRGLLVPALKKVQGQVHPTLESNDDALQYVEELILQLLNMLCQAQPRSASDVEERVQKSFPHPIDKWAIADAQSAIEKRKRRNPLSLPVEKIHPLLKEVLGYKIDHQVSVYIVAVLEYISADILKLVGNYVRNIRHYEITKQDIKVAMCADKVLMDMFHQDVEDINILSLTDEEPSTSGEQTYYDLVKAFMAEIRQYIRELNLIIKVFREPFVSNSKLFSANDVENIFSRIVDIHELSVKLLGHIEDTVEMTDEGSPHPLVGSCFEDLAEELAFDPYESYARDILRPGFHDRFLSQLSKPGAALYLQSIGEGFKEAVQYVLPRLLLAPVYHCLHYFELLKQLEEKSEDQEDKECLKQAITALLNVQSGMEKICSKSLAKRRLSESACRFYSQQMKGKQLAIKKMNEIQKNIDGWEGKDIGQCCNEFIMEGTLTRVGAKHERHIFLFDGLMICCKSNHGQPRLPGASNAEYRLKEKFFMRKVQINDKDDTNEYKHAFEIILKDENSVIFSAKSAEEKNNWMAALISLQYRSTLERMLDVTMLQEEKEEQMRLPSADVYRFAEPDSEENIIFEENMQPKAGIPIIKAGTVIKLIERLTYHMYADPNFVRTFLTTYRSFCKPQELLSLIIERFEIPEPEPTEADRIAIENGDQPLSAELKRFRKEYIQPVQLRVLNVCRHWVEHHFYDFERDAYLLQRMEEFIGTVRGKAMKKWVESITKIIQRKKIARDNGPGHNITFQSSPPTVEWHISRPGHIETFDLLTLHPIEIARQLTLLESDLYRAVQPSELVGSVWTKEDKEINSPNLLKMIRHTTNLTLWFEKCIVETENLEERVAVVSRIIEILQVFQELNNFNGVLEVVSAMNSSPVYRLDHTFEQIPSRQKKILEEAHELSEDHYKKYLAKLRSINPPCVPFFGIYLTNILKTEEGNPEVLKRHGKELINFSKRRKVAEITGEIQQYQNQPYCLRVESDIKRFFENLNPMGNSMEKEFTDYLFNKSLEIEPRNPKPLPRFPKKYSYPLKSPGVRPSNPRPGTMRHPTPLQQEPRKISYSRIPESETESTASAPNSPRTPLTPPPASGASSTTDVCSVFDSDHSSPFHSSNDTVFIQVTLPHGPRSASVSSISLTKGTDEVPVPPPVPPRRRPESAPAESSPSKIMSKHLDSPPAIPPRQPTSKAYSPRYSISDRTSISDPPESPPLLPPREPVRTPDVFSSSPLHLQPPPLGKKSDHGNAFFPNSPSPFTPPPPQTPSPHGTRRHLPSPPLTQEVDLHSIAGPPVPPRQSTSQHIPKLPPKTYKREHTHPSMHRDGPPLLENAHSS
Briefly: Inhibition of the binding of KRAS^G12C to SOS1. The conditions noted are these: Tag1-SOS1 / Tag2-KRAS^G12C, 2 h incubation at room temperature; read-out: IC50 (nM), inhibitory activity on the binding of KRAS^G12C to SOS1. An outline of the steps:
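Tag1-SOS1 and Tag2-KRAS^G12C mixed with serially diluted compound (final 0.25% DMSO), then anti-Tag1-Tb3+ and anti-Tag2-XL665 added for 2 h at room temperature. IC50 from curve fit of the TR-FRET signal.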
In the case of `COc1cc2nc(C)nc(N[C@H](C)c3cc(N)cc(C(F)(F)F)n3)c2cc1OCCOC1COC1` [Example 70, (R)—N-(1-(4-Amino-6-(trifluoromethyl)pyridin-2-yl)ethyl)-7-methoxy-2-methyl-6-(2-(oxetan-3-yloxy)ethoxy)quinazolin-4-amine], the IC50 is 24 nM.
In the case of `COCCOc1cc2c(N[C@@H](C)c3cccc(C(F)(F)C(C)(C)O)c3F)nc(C)nc2cc1OC` [Example 71, (S)-1,1-Difluoro-1-(2-fluoro-3-(1-((7-methoxy-6-(2-methoxyethoxy)-2-methylquinazolin-4-yl)amino)ethyl)phenyl)-2-methylpropan-2-ol formate], the IC50 worked out at 314 nM.
`COc1cc2nc(C)nc(N[C@H](C)c3cc(N)cc(C(F)(F)F)n3)c2cc1OCCOC1(C)CCC1` [Example 73, (R)—N-(1-(4-Amino-6-(trifluoromethyl)pyridin-2-yl)ethyl)-7-methoxy-2-methyl-6-(2-(1-methylcyclobutyloxy)ethoxy)quinazolin-4-amine]: the IC50 is 15 nM.
The same measure, in the same setting: with `COCCOc1cc2c(N[C@H](C)c3cc(C(F)(F)C(C)(C)O)ccn3)nc(C)nc2cc1OC` [Example 75] the figure was 40 nM; with `COCCOc1cc2c(N[C@H](C)c3cccc(C(F)(F)C(C)(C)O)n3)nc(C)nc2cc1OC` [Example 76], 188 nM; with `COCCOc1cc2c(N[C@H](C)c3cncc(C(F)(F)C(C)(C)O)c3)nc(C)nc2cc1OC` [Example 77], 924 nM.
As for `COCCOc1cc2c(N[C@H](C)c3cccc(S(N)(=O)=O)c3)nc(C)nc2cc1OC` [Example 84, (R)-3-(1-((7-Methoxy-6-(2-methoxyethoxy)-2-methylquinazolin-4-yl)amino)ethyl)benzenes ulfonamide], the IC50 is 18 nM.
Still for that read-out and setting: with `COCCOc1cc2c(N[C@H](C)c3cc(OC)cc(C(F)(F)C(C)(C)O)c3)nc(C)nc2cc1OC` [Example 87, (R)-1,1-Difluoro-1-(3-methoxy-5-(1-((7-methoxy-6-(2-methoxyethoxy)-2-methylquinazolin-4-yl)amino)ethyl)phenyl)-2-methylpropan-2-ol] the figure was 170 nM; with `COCCOc1cc2c(N[C@H](C)c3cccc(C(F)(F)C(C)(C)O)c3Cl)nc(C)nc2cc1OC` [Example 88, (R)-1-(2-Chloro-3-(1-((7-methoxy-6-(2-methoxyethoxy)-2-methylquinazolin-4-yl)amino)ethyl)phenyl)-1,1-difluoro-2-methylpropan-2-ol], 20 nM.

(Values after patent US20240336606A1 (Suzhou Zelgen Biopharmaceuticals Co., Ltd., priority 2020, published 2024).)
